Test results published in the NIST ThermoML archive (doi:10.1016/j.jct.2006.04.007).

Test: mn = molality of the nth substance listed, in mol/kg
Conditions: 350 kPa, Liquid; for apparent molar heat capacity: Extra sensitive DSC

CNC(C)=O [N-methylacetamide] + O
Conditions | apparent molar heat capacity [J/K/mol] | mass density [kg/m3]
278.15 K, m1 = 0.015 | 221 | 999.98
278.15 K, m1 = 0.04 | 230 | 1000.02
278.15 K, m1 = 0.07 | 243.9 | 1000.14
278.15 K, m1 = 0.1001 | 239.7 | 1000.14
278.15 K, m1 = 0.2002 | 240.2 | 1000.14
278.15 K, m1 = 0.4 | 238.2 | 1000.26
278.15 K, m1 = 0.599 | 251.1 | 1000.35
278.15 K, m1 = 0.8028 | 237.5 | 1000.66
278.15 K, m1 = 1 | 236.3 | 1000.98
283.15 K, m1 = 0.015 | 217 | 999.8
283.15 K, m1 = 0.04 | 225 | 999.78
283.15 K, m1 = 0.07 | 246 | 999.85
283.15 K, m1 = 0.1001 | 242.5 | 999.83
283.15 K, m1 = 0.2002 | 243.9 | 999.82
283.15 K, m1 = 0.4 | 242.3 | 999.89
283.15 K, m1 = 0.599 | 254.9 | 1000
283.15 K, m1 = 0.8028 | 242.4 | 1000.14
283.15 K, m1 = 1 | 241.4 | 1000.43
288.15 K, m1 = 0.015 | 213 | 999.2
288.15 K, m1 = 0.04 | 221 | 999.19
288.15 K, m1 = 0.07 | 247 | 999.23
288.15 K, m1 = 0.1001 | 247.1 | 999.22
288.15 K, m1 = 0.2002 | 247.9 | 999.16
288.15 K, m1 = 0.4 | 246 | 999.24
288.15 K, m1 = 0.599 | 257.6 | 999.28
288.15 K, m1 = 0.8028 | 245.8 | 999.39
288.15 K, m1 = 1 | 244.9 | 999.54
293.15 K, m1 = 0.015 | 220 | –
293.15 K, m1 = 0.04 | 230 | –
293.15 K, m1 = 0.07 | 250 | –
293.15 K, m1 = 0.1001 | 251.4 | –
293.15 K, m1 = 0.2002 | 251.6 | –
293.15 K, m1 = 0.4 | 249.2 | –
293.15 K, m1 = 0.599 | 259.8 | –
293.15 K, m1 = 0.8028 | 248.7 | –
293.15 K, m1 = 1 | 248 | –
298.15 K, m1 = 0.015 | 228 | –
298.15 K, m1 = 0.04 | 238 | –
298.15 K, m1 = 0.07 | 252.1 | –
298.15 K, m1 = 0.1001 | 254.8 | –
298.15 K, m1 = 0.2002 | 254.7 | –
298.15 K, m1 = 0.4 | 251.85 | –
298.15 K, m1 = 0.599 | 261.9 | –
298.15 K, m1 = 0.8028 | 251.4 | –
298.15 K, m1 = 1 | 250.8 | –
303.15 K, m1 = 0.015 | 232 | –
303.15 K, m1 = 0.04 | 245 | –
303.15 K, m1 = 0.07 | 254.5 | –
303.15 K, m1 = 0.1001 | 259 | –
303.15 K, m1 = 0.2002 | 258.7 | –
303.15 K, m1 = 0.4 | 254.53 | –
303.15 K, m1 = 0.599 | 264 | –
303.15 K, m1 = 0.8028 | 254.1 | –
303.15 K, m1 = 1 | 253.5 | –
308.15 K, m1 = 0.015 | 236 | 994.14
308.15 K, m1 = 0.04 | 250.5 | 994.12
308.15 K, m1 = 0.07 | 257.5 | 994.1
308.15 K, m1 = 0.1001 | 262.8 | 994.07
308.15 K, m1 = 0.2002 | 261.8 | 993.96
308.15 K, m1 = 0.4 | 257.09 | 993.88
308.15 K, m1 = 0.599 | 266 | 993.8
308.15 K, m1 = 0.8028 | 256.5 | 993.77
308.15 K, m1 = 1 | 255.95 | 993.7
313.15 K, m1 = 0.015 | 243 | –
313.15 K, m1 = 0.04 | 256.4 | –
313.15 K, m1 = 0.07 | 259.8 | –
313.15 K, m1 = 0.1001 | 264.8 | –
313.15 K, m1 = 0.2002 | 263.9 | –
313.15 K, m1 = 0.4 | 259.34 | –
313.15 K, m1 = 0.599 | 267.9 | –
313.15 K, m1 = 0.8028 | 258.7 | –
313.15 K, m1 = 1 | 258.14 | –
318.15 K, m1 = 0.015 | 252 | 990.32
318.15 K, m1 = 0.04 | 264.9 | 990.29
318.15 K, m1 = 0.07 | 261.2 | 990.24
318.15 K, m1 = 0.1001 | 266 | 990.21
318.15 K, m1 = 0.2002 | 265.6 | 990.07
318.15 K, m1 = 0.4 | 261.43 | 989.92
318.15 K, m1 = 0.599 | 269.7 | 989.82
318.15 K, m1 = 0.8028 | 260.8 | 989.72
318.15 K, m1 = 1 | 260.24 | 989.61
323.15 K, m1 = 0.015 | 259 | –
323.15 K, m1 = 0.04 | 268.9 | –
323.15 K, m1 = 0.07 | 262.6 | –
323.15 K, m1 = 0.1001 | 267.4 | –
323.15 K, m1 = 0.2002 | 267.4 | –
323.15 K, m1 = 0.4 | 263.5 | –
323.15 K, m1 = 0.599 | 271.4 | –
323.15 K, m1 = 0.8028 | 262.77 | –
323.15 K, m1 = 1 | 262.22 | –
328.15 K, m1 = 0.015 | 260 | 985.77
328.15 K, m1 = 0.04 | 266.5 | 985.75
328.15 K, m1 = 0.07 | 265 | 985.75
328.15 K, m1 = 0.1001 | 269.3 | 985.75
328.15 K, m1 = 0.2002 | 269.2 | –
328.15 K, m1 = 0.4 | 265.52 | –
328.15 K, m1 = 0.599 | 273.1 | –
328.15 K, m1 = 0.8028 | 264.63 | –
328.15 K, m1 = 1 | 264.06 | –
